Assay results as given in ChEMBL document CHEMBL3046766, “Design, synthesis, and insecticidal evaluation of new benzoylureas containing isoxazoline and isoxazole group” (2011).
Converted amounts (≈) assume the structure as drawn.

Key:
Type in all cases: functional
Culex pipiens pallens [1] = experiment: Insecticidal activity against Culex pipiens pallens (mosquito) fourth-instar larvae assessed as larvicidal activity at 2 mg/L measured 8 days post treatment; conditions: 192 h
Plutella xylostella [2] = experiment: Insecticidal activity against Plutella xylostella (diamondback moth) […] larvae infested on compound pre-treated fresh cabbage leaves assessed as larvicidal activity at 200 mg/L measured 3 days post treatment
Mythimna separata [3] = experiment: Insecticidal activity against Mythimna separata (Oriental armyworm) fourth-instar larvae infested compound pre-treated corn leaves assessed as larvicidal activity at 50 mg/L measured 4 days post treatment
Mythimna separata [4] = experiment: Insecticidal activity against Mythimna separata (Oriental armyworm) fourth-instar larvae infested compound pre-treated corn leaves assessed as larvicidal activity at 100 mg/L measured 4 days post treatment
Mythimna separata [5] = experiment: Insecticidal activity against Mythimna separata (Oriental armyworm) fourth-instar larvae infested compound pre-treated corn leaves assessed as larvicidal activity at 25 mg/L measured 4 days post treatment
Plutella xylostella [6] = experiment: Insecticidal activity against Plutella xylostella (diamondback moth) […] larvae infested on compound pre-treated fresh cabbage leaves assessed as larvicidal activity at 5 mg/L measured 3 days post treatment
Culex pipiens pallens [7] = experiment: Insecticidal activity against Culex pipiens pallens (mosquito) fourth-instar larvae assessed as larvicidal activity at 1 mg/L measured 8 days post treatment; conditions: 192 h
Mythimna separata [8] = experiment: Insecticidal activity against Mythimna separata (Oriental armyworm) fourth-instar larvae infested compound pre-treated corn leaves assessed as larvicidal activity at 10 mg/L measured 4 days post treatment
Culex pipiens pallens [9] = experiment: Insecticidal activity against Culex pipiens pallens (mosquito) fourth-instar larvae assessed as larvicidal activity at 0.5 mg/L measured 8 days post treatment; conditions: 192 h
Plutella xylostella [10] = experiment: Insecticidal activity against Plutella xylostella (diamondback moth) […] larvae infested on compound pre-treated fresh cabbage leaves assessed as larvicidal activity at 20 mg/L measured 3 days post treatment
Mythimna separata [11] = experiment: Insecticidal activity against Mythimna separata (Oriental armyworm) fourth-instar larvae infested compound pre-treated corn leaves assessed as larvicidal activity at 5 mg/L measured 4 days post treatment
Plutella xylostella [12] = experiment: Insecticidal activity against Plutella xylostella (diamondback moth) […] larvae infested on compound pre-treated fresh cabbage leaves assessed as larvicidal activity at 2 mg/L measured 3 days post treatment
Mythimna separata [13] = experiment: Insecticidal activity against Mythimna separata (Oriental armyworm) fourth-instar larvae infested compound pre-treated corn leaves assessed as larvicidal activity at 2.5 mg/L measured 4 days post treatment
Plutella xylostella [14] = experiment: Insecticidal activity against Plutella xylostella (diamondback moth) […] larvae infested on compound pre-treated fresh cabbage leaves assessed as larvicidal activity at 0.2 mg/L measured 3 days post treatment
Plutella xylostella [15] = experiment: Insecticidal activity against Plutella xylostella (diamondback moth) […] larvae infested on compound pre-treated fresh cabbage leaves assessed as larvicidal activity at 0.02 mg/L measured 3 days post treatment
Mythimna separata [16] = experiment: Insecticidal activity against Mythimna separata (Oriental armyworm) fourth-instar larvae infested compound pre-treated corn leaves assessed as larvicidal activity at 200 mg/L measured 4 days post treatment
Mythimna separata [17] = experiment: Insecticidal activity against Mythimna separata (Oriental armyworm) fourth-instar larvae infested compound pre-treated corn leaves assessed as larvicidal activity at 1 mg/L measured 4 days post treatment
Plutella xylostella [18] = experiment: Insecticidal activity against Plutella xylostella (diamondback moth) […] larvae infested on compound pre-treated fresh cabbage leaves assessed as larvicidal activity measured 3 days post treatment
Culex pipiens pallens [19] = experiment: Insecticidal activity against Culex pipiens pallens (mosquito) fourth-instar larvae assessed as larvicidal activity at 0.005 mg/L measured 8 days post treatment; conditions: 192 h
Mythimna separata [20] = experiment: Insecticidal activity against Mythimna separata (Oriental armyworm) fourth-instar larvae infested compound pre-treated corn leaves assessed as larvicidal activity at 0.25 mg/L measured 4 days post treatment
Culex pipiens pallens [21] = experiment: Insecticidal activity against Culex pipiens pallens (mosquito) fourth-instar larvae assessed as larvicidal activity at 0.0005 mg/L measured 8 days post treatment; conditions: 192 h
Mythimna separata [22] = experiment: Insecticidal activity against Mythimna separata (Oriental armyworm) fourth-instar larvae infested compound pre-treated corn leaves assessed as larvicidal activity at 0.5 mg/L measured 4 days post treatment
Culex pipiens pallens [23] = experiment: Insecticidal activity against Culex pipiens pallens (mosquito) fourth-instar larvae assessed as larvicidal activity at 0.001 mg/L measured 8 days post treatment; conditions: 192 h

SMILES: O=C(NC(=O)c1c(F)cccc1F)Nc1ccc(C2=NOC3(CCCCC3)C2)cc1
- mortality at 2 µg/mL (Culex pipiens pallens [1]): 70%
- mortality at 200 µg/mL (Plutella xylostella [2]): 20%
- mortality at 50 µg/mL (Mythimna separata [3]): 40%
- mortality at 100 µg/mL (Mythimna separata [4]): 100%

SMILES: O=C(NC(=O)c1c(F)cccc1F)Nc1ccc(C2=NOC3(CCCC3)C2)cc1
- mortality at 2 µg/mL (Culex pipiens pallens [1]): 80%
- mortality at 200 µg/mL (Plutella xylostella [2]): 10%
- mortality at 50 µg/mL (Mythimna separata [3]): 60%
- mortality at 100 µg/mL (Mythimna separata [4]): 100%

SMILES: O=C(NC(=O)c1c(F)cccc1F)Nc1ccc(C2=NOC3CCCC23)cc1 (centres undefined)
- mortality at 2 µg/mL (Culex pipiens pallens [1]): 50%
- mortality at 200 µg/mL (Plutella xylostella [2]): 0%
- mortality at 50 µg/mL (Mythimna separata [3]): 0%
- mortality at 100 µg/mL (Mythimna separata [4]): 100%

SMILES: O=C(NC(=O)c1c(F)cccc1F)Nc1ccc(C2=NOC3CC23)cc1 (centres undefined)
- mortality at 2 µg/mL (Culex pipiens pallens [1]): 60%
- mortality at 200 µg/mL (Plutella xylostella [2]): 10%
- mortality at 50 µg/mL (Mythimna separata [3]): 0%
- mortality at 100 µg/mL (Mythimna separata [4]): 100%

SMILES: O=C(NC(=O)c1c(F)cccc1F)Nc1ccc(C2CC(c3ccc(F)cc3)=NO2)cc1 (centres undefined)
- mortality at 25 µg/mL (Mythimna separata [5]): 100%
- mortality at 5 µg/mL (Plutella xylostella [6]): 0%
- mortality at 1 µg/mL (Culex pipiens pallens [7]): 100%
- mortality at 10 µg/mL (Mythimna separata [8]): 60%
- mortality at 2 µg/mL (Culex pipiens pallens [1]): 100%
- mortality at 200 µg/mL (Plutella xylostella [2]): 100%
- mortality at 50 µg/mL (Mythimna separata [3]): 100%
- mortality at 0.5 µg/mL (Culex pipiens pallens [9]): 70%
- mortality at 20 µg/mL (Plutella xylostella [10]): 70%

SMILES: CC(C)(C)C1=NOC(c2ccc(NC(=O)NC(=O)c3c(F)cccc3F)cc2)C1 (centres undefined)
- mortality at 25 µg/mL (Mythimna separata [5]): 100%
- mortality at 5 µg/mL (Plutella xylostella [6]): 30%
- mortality at 1 µg/mL (Culex pipiens pallens [7]): 80%
- mortality at 10 µg/mL (Mythimna separata [8]): 40%
- mortality at 2 µg/mL (Culex pipiens pallens [1]): 100%
- mortality at 200 µg/mL (Plutella xylostella [2]): 100%
- mortality at 50 µg/mL (Mythimna separata [3]): 100%
- mortality at 20 µg/mL (Plutella xylostella [10]): 100%

SMILES: CC(C)(C)c1cc(-c2ccc(NC(=O)NC(=O)c3c(F)cccc3F)cc2)no1
- mortality at 5 µg/mL (Mythimna separata [11]): 100%
- mortality at 2 µg/mL (Plutella xylostella [12]): 100%
- mortality at 5 µg/mL (Plutella xylostella [6]): 100%
- mortality at 10 µg/mL (Mythimna separata [8]): 100%
- mortality at 2.5 µg/mL (Mythimna separata [13]): 0%
- mortality at 2 µg/mL (Culex pipiens pallens [1]): 40%
- mortality at 0.2 µg/mL (Plutella xylostella [14]): 60%
- mortality at 0.02 µg/mL (Plutella xylostella [15]): 30%

SMILES: O=C(NC(=O)c1c(F)cccc1F)Nc1ccc(-c2cc(COCC(F)(F)F)on2)cc1
- mortality at 2 µg/mL (Culex pipiens pallens [1]): 40%
- mortality at 200 µg/mL (Plutella xylostella [2]): 30%
- mortality at 50 µg/mL (Mythimna separata [3]): 20%
- mortality at 20 µg/mL (Plutella xylostella [10]): 0%
- mortality at 100 µg/mL (Mythimna separata [4]): 100%
- mortality at 200 µg/mL (Mythimna separata [16]): 100%

SMILES: CCCCOCc1cc(-c2ccc(NC(=O)NC(=O)c3c(F)cccc3F)cc2)no1
- mortality at 2 µg/mL (Culex pipiens pallens [1]): 60%
- mortality at 200 µg/mL (Plutella xylostella [2]): 0%
- mortality at 50 µg/mL (Mythimna separata [3]): 80%
- mortality at 100 µg/mL (Mythimna separata [4]): 100%
- mortality at 200 µg/mL (Mythimna separata [16]): 100%

SMILES: Cc1cc(-c2ccc(NC(=O)NC(=O)c3c(F)cccc3F)cc2)no1
- mortality at 2 µg/mL (Culex pipiens pallens [1]): 20%
- mortality at 200 µg/mL (Plutella xylostella [2]): 10%
- mortality at 50 µg/mL (Mythimna separata [3]): 20%
- mortality at 100 µg/mL (Mythimna separata [4]): 100%
- mortality at 200 µg/mL (Mythimna separata [16]): 100%

SMILES: CCCCCCCCc1cc(-c2ccc(NC(=O)NC(=O)c3c(F)cccc3F)cc2)no1
- mortality at 2 µg/mL (Culex pipiens pallens [1]): 40%
- mortality at 200 µg/mL (Plutella xylostella [2]): 10%
- mortality at 50 µg/mL (Mythimna separata [3]): 20%
- mortality at 100 µg/mL (Mythimna separata [4]): 100%
- mortality at 200 µg/mL (Mythimna separata [16]): 100%

SMILES: CC(C)(C)O/N=C/c1ccc(NC(=O)NC(=O)c2c(F)cccc2F)cc1
- mortality at 1 µg/mL (Mythimna separata [17]): 100%
- LC50 (Plutella xylostella [18]): 30.8 µg/mL (≈ 82 µM)
- mortality at 0.005 µg/mL (Culex pipiens pallens [19]): 100%
- mortality at 0.25 µg/mL (Mythimna separata [20]): 0%
- mortality at 0.0005 µg/mL (Culex pipiens pallens [21]): 20%
- mortality at 0.5 µg/mL (Mythimna separata [22]): 85%
- mortality at 0.001 µg/mL (Culex pipiens pallens [23]): 70%
